Test results as given in US20240316012A1, “METHODS FOR TREATING LYMPHOMA” (Northwestern University, priority 2023, published 2024).

Legend:
Assay type in all cases: cell-based, mouse
ITK-SYK^+PD-1− cells = assay: Lactate production of ITK-SYK+PD-1− cells incubated with small molecule inhibitors; settings: ITK-SYK+PD-1− cells in vitro; FIGS. 10A-C
Method: (§1) Cell culture. Unless otherwise indicated, murine cells were cultured in DMEM containing 20% FCS. The following compounds were used for the in vitro experiments: glycolysis inhibitor 2-deoxy-D-glucose (D8375, Sigma), mTOR inhibitor Torin-1 (S2827, Selleckchem), HIF1α inhibitor PX-478 2HCl (S7612, Selleckchem), ATP citrate lyase inhibitor BMS-303141 (4609, Tocris), fatty acid synthase inhibitor FT113 (S6666, Selleckchem), and BET-p300/CBP dual inhibitor NE02734 (S9648, Selleckchem). Inhibitors were dissolved in DMSO or water, and the cell culture medium was supplemented with the indicated concentrations of the compound or DMSO/water (as control).
To test the dependency of fully transformed lymphomas with Pdcd1 deletion on the released mTOR-HIF1α-glycolysis cascade, Applicants incubated ITK-SYK^+PD-1− cells with small molecule inhibitors of mTOR, HIF1α, or glycolysis^22,23.

[1] = system: ITK-SYK^+PD-1^− lymphoma cells; assay: In vitro survival of PD-1 deficient lymphoma cells under inhibitor treatment; settings: FIGS. 10D-F
Method: as §1
To determine whether ACLY activity is required for PD-1-deficient lymphoma cell survival, Applicants next incubated transformed ITK-SYK^+PD-1− T cells from tamoxifen-injected ITK-SYK^CD4-creERT2; Pdcd1^−/− mice with an ACLY inhibitor. This treatment killed the ITK-SYK^+PD-1^− lymphoma cells (FIG. 11F, p=0.0037).

[2] = system: AP-1 family transcription factors; assay: ATAC-seq transcription factor footprint analysis after inhibitor incubation; settings: BMS-303141 5 μM, 3 hours in vitro vs DMSO
Method: Preparation of mouse and human ATAC-seq libraries. Ex vivo: For mouse ATAC-seq, ITK-SYK^CD4-creERT2, or ITK-SYK^CD4-creERT2; Pdcd1^−/− mice received a single dose of 2 mg tamoxifen. Five days after injection, single-cell suspensions were generated from the spleens and 50,000 eGFP^+ FACS-sorted cells were used for the transposase reaction. For human ATAC-seq, 50,000 malignant cells from CTCL patients with and without PDCD1 mutation were sorted by FACS as described above. The transposase reaction was performed as previously described^81. […] The reaction was monitored after 4 cycles with qPCR using 5 μl PCR reaction mixture and the same primers in 15 μl total volume (KK4617, Roche). Cycles were added as calculated, then the amplified samples were purified, and size selected using SpeedBeads (GE65152105050250, Sigma) in 22% PEG. […]
ATAC-seq analysis. […] Next, reads were aligned to the mm9 genome using Bowtie2 (v2.4.0)^71. […] To filter properly mapped reads, Applicants used Samtools with the following options: exclude multi-mapped reads (MAPQ<30) and reads with flag 1796 or 1804. Next, Samtools with option “-f 2” was used to filter properly paired reads. […] Next, Applicants filtered for nucleosome-free reads (0-100 bp) as previously described^44. […]

SMILES	production of lactate (ITK-SYK^+PD-1− cells)	toxicity to PD-1 deficient lymphoma cells [1]	AP-1 footprints in Pdcd1 deleted cells in comparison to cells with intact PD-1 pathway [2]
O=CC[C@@H](O)[C@H](O)[C@H](O)CO [2-DG, 2-deoxy-D-glucose]	reduced the production of lactate	toxic	
COc1ccc(-c2ccccc2)cc1NS(=O)(=O)c1cc(Cl)cc(Cl)c1O [BMS-303141]			de-enriched
